Experiment [1] concerns RKO (RKOp27) human colon adenocarcinoma cells. Description: Alamar Blue cell viability assay, anti-proliferative/cytotoxic activity on proliferating RKO subclones. Conditions: RKOp27, 72 h, RKO p27 uninduced (proliferating) cells, value = class bound given in Table A, read-out: −logIC50 RKO p27 uninduced (proliferating) (converted). The format is cell-based. In short, it runs like this:
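RKOp27 subclones (5000 cells/well) were exposed 24 h after seeding to semi-log compound dilutions in DMEM with 10% FCS, in quadruplicate, for 72 h at 37 °C. Viability was read by Alamar Blue fluorescence (544/590 nm) relative to untreated cells (1% DMSO medium). IC50 came from concentration-effect curves and is reported as −log IC50 [mol/l].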
In general terms: Alamar Blue is a resazurin reagent that responds to reducing activity.

Experiment [2] deals with subclones of RKO colon adenocarcinoma cells (RKOp27 or RKOp21) arrested by Ponasterone A. Description: Alamar Blue cell viability assay, cell cycle specific mode of action: cells arrested by ectopic p27Kip1 induced by Ponasterone A versus proliferating cells. The experiment is classed as cell-based. Conditions: Homo sapiens, RKO p27 induced (arrested) cells, 10 μM Ponasterone A, 72 hours, value = class bound given in Table A, read-out: −logIC50 RKO p27 induced (arrested) (converted). In short, it runs like this:
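RKOp27 or RKOp21 cells, 15000/well in DMEM/10% FCS, either arrested by p27Kip1 induced with 10 μM Ponasterone A or proliferating without inducer; compound added after 24 h, 72 h at 37° C. Alamar Blue fluorescence (544/590 nm), viability as % of untreated cells; −log IC50 reported.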

Regarding `CN(CC(O)CO)C(=O)OCC1CCc2c(sc(NC(=O)/C=C/c3cccnc3)c2C#N)C1` (centres unmarked) [Example 123, (2,3-Dihydroxy-propyl)-methyl-carbamic acid 3-cyano-2-((E)-3-pyridin-3-yl-allanoylamino)-4,5,6,7-tetrahydro-benzo[b]thiophen-6-ylmethyl ester], the IC50 in experiment [1] was 0.501 to 2 µM; in experiment [2], no less than 100 µM.
Consider `N#Cc1c(NC(=O)/C=C/c2cccnc2)sc2c1CCC(OC(=O)N1CC(F)C1)C2` (centres unmarked) [Example 124, 3-Fluoro-azetidine-1-carboxylic acid 3-cyano-2-((E)-3-pyridin-3-yl-allanoylamino)-4,5,6,7-tetrahydro-benzo[b]thiophen-6-yl ester], for which the IC50 in experiment [1] was no more than 0.501 µM; in experiment [2] it was no less than 100 µM.
With `N#Cc1c(NC(=O)/C=C/c2cccnc2)sc2c1CCC(OC(=O)N1CC[C@@H](O)[C@@H](O)C1)C2` (stereo partly drawn) [Example 125, cis-3-, 4-Dihydroxy-piperidine-1-carboxylic acid 3-cyano-2-((E)-3-pyridin-3-yl-allanoylamino)-4,5,6,7-tetrahydro-benzo[b]thiophen-6-yl ester], the figures for the IC50 in experiment [1] and in experiment [2] were 0.501 to 2 µM and no less than 100 µM, respectively.
For the molecule `CN(CC(O)CO)C(=O)OC1CCc2c(sc(NC(=O)/C=C/c3cccnc3)c2C#N)C1` (centres unmarked) [Example 126, (2,3-Dihydroxy-propyl)-methyl-carbamic acid 3-cyano-2-((E)-3-pyridin-3-yl-allanoylamino)-4,5,6,7-tetrahydro-benzo[b]thiophen-6-yl ester], the IC50 is 0.501 to 2 µM in experiment [1] and no less than 100 µM in experiment [2].
As for `CS(=O)(=O)NC1CCN(C(=O)OC2CCc3c(sc(NC(=O)/C=C/c4cccnc4)c3C#N)C2)CC1` (centres unmarked) [Example 127, 4-Methane-sulfonylamino-piperidine-1-carboxylic acid 3-cyano-2-((E)-3-pyridin-3-yl-allanoylamino)-4,5,6,7-tetrahydro-benzo[b]thiophen-6-yl ester], the IC50 in experiment [1] is no more than 0.501 µM; in experiment [2] it was no less than 100 µM.
Take `N#Cc1c(NC(=O)/C=C/c2cccnc2)sc2c1CCC(OC(=O)N[C@H]1CC[C@@H](O)CC1)C2` (stereo partly drawn) [Example 128, cis-4-Hydroxycyclohexyl-carbamic acid 3-cyano-2-((E)-3-pyridin-3-yl-allanoylamino)-4,5,6,7-tetrahydro-benzo[b]thiophen-6-yl ester]: the IC50 is 0.501 to 2 µM in experiment [1] and no less than 100 µM in experiment [2].
With `Cc1ccncc1/C=C/C(=O)Nc1sc2c(c1C#N)CCC(COC(=O)N(C)C)C2` (centres unmarked) [Example 129, Dimethyl-carbamic acid 3-cyano-2-[(E)-3-(4-methyl-pyridin-3-yl)-allanoylamino]-4,5,6,7-tetrahydro-benzo[b]thiophen-6-ylmethyl ester], the IC50 was no more than 0.501 µM in experiment [1] and no less than 100 µM in experiment [2].
Turning to `Cc1ccncc1/C=C/C(=O)Nc1sc2c(c1C#N)CCC(COC(=O)N1CCCC1)C2` (centres unmarked) [Example 130, Pyrrolidine-1-carboxylic acid 3-cyano-2-[(E)-3-(4-methyl-pyridin-3-yl)-allanoylamino]-4,5,6,7-tetrahydro-benzo[b]thiophen-6-ylmethyl ester], the IC50 in experiment [1] was no more than 0.501 µM; in experiment [2], no less than 100 µM.
In the case of `Cc1ccncc1/C=C/C(=O)Nc1sc2c(c1C#N)CCC(COC(=O)N1CCC[C@@H](O)C1)C2` (stereo partly drawn) [Example 131, (R)-3-Hydroxy-piperidine-1-carboxylic acid 3-cyano-2-[(E)-3-(4-methyl-pyridin-3-yl)-allanoylamino]-4,5,6,7-tetrahydro-benzo[b]thiophen-6-ylmethyl ester], the IC50 is no more than 0.501 µM in experiment [1] and no less than 100 µM in experiment [2].
The corresponding values for `Cc1ccncc1/C=C/C(=O)Nc1sc2c(c1C#N)CCC(COC(=O)N1CC(O)C1)C2` (centres unmarked) [Example 132, 3-Hydroxy-azetidine-1-carboxylic acid 3-cyano-2-[(E)-3-(4-methyl-pyridin-3-yl)-allanoylamino]-4,5,6,7-tetrahydro-benzo[b]thiophen-6-ylmethyl ester] are 0.501 to 2 µM and no less than 100 µM.

The record behind these values is patent publication US20110044938A1 (NYCOMED GMBH, priority 2006, published 2011).
